Data reported in EP0232423A1, “CIRCULATION IMPROVING AGENT” (GRELAN PHARMACEUTICAL CO., LTD., priority 1985, dated 1987).
Counter-ions that a name gives are not always drawn.

Key:
isolated femoral artery [1] = assay: Relaxation of isolated femoral artery contracted by 50 mM KCl; type: cell-based, Mongrel dogs; settings: Canis lupus familiaris, 50 mM KCl contraction; for inhibition at 100 µM: 10^-4 M; for inhibition at 10 µM: 10^-5 M; for inhibition at 1 µM: 10^-6 M; for inhibition at 0.1 µM: 10^-7 M; for EC50: relaxation of isolated femoral artery, read-out: ED50 (the source's name)
Description: (§1) Mongrel dogs of either sex (body weight 10-17 kg) were killed by bleeding under anesthetization with pentobarbital sodium (tradename: Nembutai ® Abbott Co., USA). Thereafter, the basilar and femoral arteries were extracted and attached blood and connective tissues were carefully removed in a dish filled with Krebs bicarbonate solution (composition: NaCl 117.7 mM, KC1 4.7 mM, CaCl2 2.5 mM, MgSo4 1.2 mM, glucose 10 mM, NaHCO3 24.4 mM). Thereafter, ring preparations were made therefrom. This preparation was suspended in a bathing tube of 10 ml filled with Krebs bicarbonate solution aerated with 95 % 02 and 5 % C02.
(§2) Then, samples of basilar and femoral arteries were contracted by application of 50 mM KC1. After confirming that the contraction was sustained, (a) compound (I) (erythro form) lactate, (b) compound (I) (threo form) lactate and (c) ifenprodil; [2-(4-benzyl- piperidino-l-(4-hydroxyphenyl)propane-l-ol] tartrate were, respectively, administered as test compounds and the dose-relaxation response was examined.
(§3) A strain gauge transducer (model SB-lT manufactured by Nihon Koden Co.) was employed for recording of change of tension and isometric contraction was recorded on a recorder (model QPD 53 made by Hitachi Ltd . ) .

isolated basilar artery [2] = assay: Relaxation of isolated basilar artery contracted by 50 mM KCl; type: cell-based, Mongrel dogs; settings: Canis lupus familiaris, 50 mM KCl contraction; for inhibition at 1 µM: 10^-6 M; for inhibition at 0.1 µM: 10^-7 M; for inhibition at 0.01 µM: 10^-8 M; for EC50: relaxation of isolated basilar artery, read-out: ED50 (the source's name)
Description: as §1, §2, §3

ddY male mice [3] = assay: Prolongation of gasping time in complete cerebral ischemic (decapitated) animals; type: in vivo; settings: for Ratio of time (%): prolongation as compared with the control group; for Duration time of gasping: decapitated after 30 minutes
Description: After 30 minutes from administration, the.mice were decapitated and the duration time of gasping was measured. The control group was drug-untreated.

isolated coronary artery = assay: Relaxation of isolated coronary artery; type: cell-based, Mongrel dogs; settings: Canis lupus familiaris, read-out: ED50 (the source's name)
Description: as §1, §2, §3
Experiments were conducted in accordance with the method of Test Example 2 with use of the coronary artery in place of the basilar and femoral arteries. […]

platelets of rabbit = assay: Fluidity of platelet membrane (fluorescence polarization); type: cell-based; parameters: Fluorescence polarization: unit not given here; settings: for Fluorescence polarization: fluidity increases as value decreases
Text: The activity of compound (I) (lactate) and ifenprodil tartrate against the fluidity of platelet membrane was examined according to a known method (Biochimica et Biophysica Acta, vol. 798, page 210, 1984) using platelets of rabbit and using n-butyl alcohol as a positive control.

α2-adrenoceptor = assay: Antagonism of clonidine (α2-agonist) contraction in saphenous vein; type: cell-based, Mongrel dogs; settings: α2 - agonist: clonidine, non-competitive antagonism, 15 min
Text: (§4) In this experiment, phenylephrine and clonidine were used as al-agonist and a2-agonist, respectively, and these agonists were cumulatively applied to obtain a dose-response curve.

isolated femoral artery [4] = assay: K-induced 45Ca influx in isolated femoral artery; type: cell-based, Mongrel dogs; settings: 10^-5 M + 50 mM KCl
Text: (§5) Using the isolated basilar artery and femoral artery treated in accordance with Test Example 2, the activity of (a) compound (I) (lactate), (b) ifenprodil tartrate and (c) verapamil hydrochloride against ^45Ca influx and ^45Ca uptake were examined by the conventional method (J. Membran. Biol., vol. 59, page 19, 1981).

ddY male mice [5] = assay: Ameliorative activity against damage of cerebral hypoxia (reduced pressure); type: in vivo; settings: for Time required for stoppage of respiration: 30 minutes before, pressure reduced to 160 mmHg
Description: Thirty mg/kg each of compound (I) (lactate) and ifenprodil tartrate and 16 mg/kg of phentolamine, which is an a-adrenoceptor blocker, were intraperitoneally administered to ddY male mice, respectively. […] Time from start of reduction of pressure until stop of respiration in the mice was measured. The control group was drug-untreated.

isolated basilar artery [6] = assay: Ca antagonistic action: Ca-induced contraction in K-depolarized basilar artery; type: cell-based, Mongrel dogs; settings: Canis lupus familiaris, 0.25 h, 50 mM KCl, Ca-free bath, cumulative CaCl2, compound applied 15 minutes before, read-out: pA2 values on Ca-induced contraction in depolarized muscle by K (converted)
Description: (§6) The same measurements as in Test Example 2 were carried out using the isolated basilar artery and isolated femoral artery treated in accordance with the method of Test Example 2.
(§7) For examination of the Ca antagonistic action, the depolarization of both isolated arteries was induced with 50 mM KC1 in a bathing solution from which Ca had been removed and then CaCl2 was cumulatively applied thereto. As test compounds, (a) compound (I) (erythro form) lactate and (b) ifenprodil tartrate were applied at 15 minutes before addition of CaCl2.

α1-adrenoceptor = assay: Antagonism of phenylephrine (α1-agonist) contraction in saphenous vein; type: cell-based, Mongrel dogs; settings: α1 - agonist: phenylephrine; saphenous vein; 15 minutes treatment
Text: as §4

isolated femoral artery [7] = assay: K-induced 45Ca uptake in isolated femoral artery; type: cell-based, Mongrel dogs; settings: 50 mM KCl alone 586.0 ± 17.9
Text: as §5

isolated basilar artery [8] = assay: PGF2α-induced 45Ca uptake in isolated basilar artery; type: cell-based, Mongrel dogs; settings: 10^-5 M + 10^-5 M PGF2α; PGF2α alone 166.2 ± 6.0
Text: as §5

isolated femoral artery [9] = assay: Ca antagonistic action: Ca-induced contraction in K-depolarized femoral artery; type: cell-based, Mongrel dogs; settings: Canis lupus familiaris, 0.25 h, 50 mM KCl, Ca-free bath, cumulative CaCl2, compound applied 15 minutes before, read-out: pA2 values on Ca-induced contraction in depolarized muscle by K (converted)
Description: as §6, §7

ddY male mice [10] = assay: Thromboembolic respiratory depression induced by ADP; type: in vivo; settings: ADP 40 mg/kg i.v.
Description: The degree of formation of platelet thrombi in the pulmonary vessels of mice induced by intravenous administration of ADP can be measured based on the decrease in the respiratory rate. The anti-platelet thrombotic action of test drugs can be evaluated by using this decrease in the respiratory rate as a standard. […] Relative respiratory rate (%) was calculated according to the following formula. [formula] (cf. "Thrombosis Research", Vol. 35, Page 311, 1984)

[11] = pre-incubation 15 min, 50 mM KCl alone 94.6 ± 5.2
[12] = pre-incubation 45 min, 50 mM KCl alone 98.4 ± 6.8

Work on C[C@@H]([C@H](O)c1ccc(OCc2ccccc2)cc1)N1CCC(Cc2ccccc2)CC1 (relative stereo) [Compound (I) (erythro form) lactate] yielded an inhibition at 100 µM (isolated femoral artery [1]; mean, n = 4 - 5) of 85.8%, an inhibition at 10 µM (isolated femoral artery [1]; mean, n = 4 - 5) of 59.9% and an inhibition at 1 µM (isolated femoral artery [1]; mean, n = 4 - 5) of 34.2%. For the same molecule, the inhibition at 0.1 µM (isolated femoral artery [1]; mean, n = 4 - 5) was 1.2%, the inhibition at 0.01 µM (isolated femoral artery [1]; 10^-8 M, mean, n = 4 - 5) was 0.4% and the EC50 (isolated femoral artery [1]) was 7.2 µM. It also gave an inhibition at 1 µM (isolated basilar artery [2]; mean, n = 4 - 5) of 100%, an inhibition at 0.1 µM (isolated basilar artery [2]; mean, n = 4 - 5) of 39.2% and an inhibition at 0.01 µM (isolated basilar artery [2]; mean, n = 4 - 5) of 7%. It also gave an EC50 (isolated basilar artery [2]) of 0.16 µM.

C[C@@H]([C@@H](O)c1ccc(OCc2ccccc2)cc1)N1CCC(Cc2ccccc2)CC1 (relative stereo) [Compound (I) (threo form) lactate] gave an inhibition at 100 µM (isolated femoral artery [1]; mean, n = 4 - 5) of 62.3%, an inhibition at 10 µM (isolated femoral artery [1]; mean, n = 4 - 5) of 22.5% and an inhibition at 1 µM (isolated femoral artery [1]; mean, n = 4 - 5) of 6.8%. It also gave an inhibition at 0.1 µM (isolated femoral artery [1]; mean, n = 4 - 5) of 0%, an EC50 (isolated femoral artery [1]) of 51 µM and an inhibition at 10 µM (isolated basilar artery [2]; 10^-5 M, mean, n = 4 - 5) of 100%. It also gave an inhibition at 1 µM (isolated basilar artery [2]; mean, n = 4 - 5) of 91.7%, an inhibition at 0.1 µM (isolated basilar artery [2]; mean, n = 4 - 5) of 72.1% and an inhibition at 0.01 µM (isolated basilar artery [2]; mean, n = 4 - 5) of 10.8%. It also gave an EC50 (isolated basilar artery [2]) of 0.085 µM.

With CC(C)(CO)[C@@H](O)C(=O)NCCCC(=O)O [Calcium hopantenate] the “Ratio of time (%)” value (ddY male mice [3]; 300 mg/kg i.p.) was 10.5% and the “Duration time of gasping” value (ddY male mice [3]; 300 mg/kg intraperitoneally) was 23.1 ± 0.6 s.

With CC(C(O)c1ccc(OCc2ccccc2)cc1)N1CCC(Cc2ccccc2)CC1 (stereo not drawn) [Compound (I) lactate] the EC50 (isolated coronary artery) was 2.2 µM, the “effect on fluidity of platelet membrane” value (platelets of rabbit) was “an increase in the fluitidy of platelet membrane” and the “pD2' value” (α2-adrenoceptor) was “pD2' = 4.87^Note 4)”. For the same molecule, the “K-induced ^45Ca influx in isolated femoral artery” value (shortened to “K-induced ^45Ca influx”) (isolated femoral artery [4]; [11]) was 106.2 ± 4.1 n mol/g wt. tissue, the “K-induced ^45Ca influx” value (isolated femoral artery [4]; [12]) was 38.2 ± 2.6 n mol/g wt. tissue and the “K-induced ^45Ca influx” value (isolated femoral artery [4]; pre-incubation 135 min) was 28.3 ± 1.1 n mol/g wt. tissue. The “Ratio of time (%)” value (ddY male mice [3]; 3 mg/kg i.p.) was 3.8%, the “Duration time of gasping” value (ddY male mice [3]; 3 mg/kg intraperitoneally) was 21.7 ± 0.4 s and the “Ratio of time (%)” value (ddY male mice [3]; 10 mg/kg i.p.) was 27.8%. The “Duration time of gasping” value (ddY male mice [3]; 10 mg/kg intraperitoneally) was 26.7 ± 1.8 s, the “Ratio of time (%)” value (ddY male mice [3]; 30 mg/kg i.p.) was 116.3% and the “Duration time of gasping” value (ddY male mice [3]; 30 mg/kg intraperitoneally) was 45.2 ± 3.5 s. For the same molecule, the “Time required for stoppage of respiration” value (ddY male mice [5]; 30 mg/kg intraperitoneally) was 126.1 ± 12.1 s, the Kb (isolated basilar artery [6]) was 0.0186 µM and the pA2 value (α1-adrenoceptor) was “pA2 = 7.03 ± 0.04”. The “K-induced ^45Ca uptake in isolated femoral artery” value (from here on “K-induced ^45Ca uptake”) (isolated femoral artery [7]; 10^-4 M + 50 mM KCl) was 378.8 ± 27.9 n mol/g wt. tissue, the “K-induced ^45Ca uptake” value (isolated femoral artery [7]; 10^-5 M + 50 mM KCl) was 461.4 ± 26.7 n mol/g wt. tissue and the “K-induced ^45Ca uptake” value (isolated femoral artery [7]; 10^-6 M + 50 mM KCl) was 724.4 ± 32.4 n mol/g wt. tissue. The “PGF2α-induced ^45Ca uptake in isolated basilar artery” value (isolated basilar artery [8]) was 135.2 ± 12.7 (*) n mol/g wt. tissue and the Kb (isolated femoral artery [9]) was 1.55 µM.

For COc1ccc([C@@H]2Sc3ccccc3N(CCN(C)C)C(=O)[C@@H]2OC(C)=O)cc1 [Diltiazem-HCl], the “Relative respiratory rate (%)” value (ddY male mice [10]; 10 mg/kg oral, 1 hr after administration) was 56.3 ±8.5 (n=6) % and the “Relative respiratory rate (%)” value (ddY male mice [10]; 10 mg/kg oral, 2 hr after administration) was 38.3 ±7.3 (n=7) %.

OC[C@H]1OC(O)[C@H](O)[C@@H](O)[C@@H]1O (stereo partly drawn) [Glucose] was tested, and the “Ratio of time (%)” value (ddY male mice [3]; 5.4 g/kg i.p.) was 10.5% and the “Duration time of gasping” value (ddY male mice [3]; 5.4 g/kg intraperitoneally) was 23.1 ± 0.6 s.

Cc1ccc(N(CC2=NCCN2)c2cccc(O)c2)cc1 [Phentolamine] was tested, and the “Time required for stoppage of respiration” value (ddY male mice [5]; 16 mg/kg intraperitoneally) was 54.5 ± 2.9 s and the “effect on survival time (cerebral hypoxia)” value (ddY male mice [5]; i.p., 30 mg/kg compound (I) and ifenprodil tartrate, 16 mg/kg phentolamine) was “shortens it”.

Clc1ccccc1CN1CCc2sccc2C1 [Ticlopidine-HCl] was tested, and the “Relative respiratory rate (%)” value (ddY male mice [10]; 30 mg/kg oral, 1 hr after administration, Compound (I) = erythro form) was 49.3 ±4.3 (n=6) %, the “Relative respiratory rate (%)” value (ddY male mice [10]; 30 mg/kg oral, 2 hr after administration, Compound (I) = erythro form) was 33.9 ±7.0 (n=7) % and the “Relative respiratory rate (%)” value (ddY male mice [10]; 30 mg/kg oral, 3 hr after administration, Compound (I) = erythro form) was 37.2 ±10.5 (n=9) %.

With COc1ccc(CCN(C)CCCC(C#N)(c2ccc(OC)c(OC)c2)C(C)C)cc1OC (stereo not drawn) [Verapamil hydrochloride] the “K-induced ^45Ca influx” value (isolated femoral artery [4]; [11]) was 76.7 ± 2.0 n mol/g wt. tissue, the “K-induced ^45Ca influx” value (isolated femoral artery [4]; [12]) was 29.8 ± 2.8 n mol/g wt. tissue and the “K-induced ^45Ca influx” value (isolated femoral artery [4]; pre-incubation 135 min) was 64.1 ± 5.0 n mol/g wt. tissue. The “K-induced ^45Ca uptake” value (isolated femoral artery [7]; 10^-5 M + 50 mM KCl) was 344.7 ± 14.4 n mol/g wt. tissue and the “PGF2α-induced ^45Ca uptake in isolated basilar artery” value (isolated basilar artery [8]) was 134.0 ± 4.1 n mol/g wt. tissue.

With CCCCO [n-Butyl alcohol, n-butyl alcohol] the “effect on fluidity of platelet membrane” value (platelets of rabbit) was “an increase in the fluitidy of platelet membrane”, the Fluorescence polarization (platelets of rabbit; 21 µM) was 7±5 and the Fluorescence polarization (platelets of rabbit; 42 µM) was 6±5. The Fluorescence polarization (platelets of rabbit; 62 µM) was -14±2.
